Data as given in ChEMBL document CHEMBL1145882, “High affinity, bioavailable 3-amino-1,4-benzodiazepine-based gamma-secretase inhibitors” (Bioorg Med Chem Lett, 2003).
pIC50: −log10 of the molar value.

Tests used:
Gamma-secretase = assay: In vitro inhibition of gamma secretase.; format: protein-complex assay, Homo sapiens
[1] = Cmax value at 5 mg/kg po in rat; format: ADME, organism-based; design: dose 5 mg/kg, route oral; details: in vivo
[2] = Area under curve at 4 hr in rat; format: ADME, organism-based; design: time < 4 hr; details: in vivo
[3] = Cmax value at 1 mg/kg po in rat; format: ADME, organism-based; design: dose 1 mg/kg, route oral; details: in vivo
[4] = Half life period was determined; format: ADME; details: rat
[5] = Bioavailability in rat; format: ADME, organism-based; details: in vivo
[6] = Cmax value at 5 mg/kg po was determined in rat; format: ADME, organism-based; design: dose 5 mg/kg, route oral; details: in vivo

| Compound | pIC50 (Gamma-secretase) | also measured |
| --- | --- | --- |
| C[C@@H](Cc1ccc(F)c(F)c1)C(=O)NC1N=C(c2ccc(C(N)=O)cc2)c2ccccc2N(C)C1=O (stereo partly specified) | 9.31 | – |
| C[C@@H](Cc1ccc(F)c(F)c1)C(=O)N[C@H]1N=C(c2ccc3c(c2)CCCC3=O)c2ccccc2N(C)C1=O | 8.66 | – |
| C[C@@H](Cc1ccc(F)c(F)c1)C(=O)N[C@H]1N=C(c2ccc3c(c2)CCN(C)C3=O)c2ccccc2N(C)C1=O | 5.72 | – |
| C[C@@H](Cc1ccc(F)c(F)c1)C(=O)N[C@H]1N=C(c2ccc3c(c2)OC(F)(F)O3)c2ccccc2N(C)C1=O | 7.55 | – |
| C[C@@H](Cc1ccc(F)c(F)c1)C(=O)N[C@H]1N=C(c2ccc3c(=O)ccoc3c2)c2ccccc2N(C)C1=O | 8.92 | – |
| C[C@@H](Cc1ccc(F)c(F)c1)C(=O)N[C@H]1N=C(c2ccc3c(c2)OCO3)c2ccccc2N(C)C1=O | 7.88 | Cmax [1]: 40 nM; AUC at 4 h [2]: 0.09 µM·h |
| C[C@@H](Cc1ccc(F)c(F)c1)C(=O)N[C@H]1N=C(c2ccc3c(c2)CCNC3=O)c2ccccc2N(C)C1=O | 9.52 | Cmax [3]: 2 nM; AUC at 4 h [2]: < 0.004 µM·h |
| C[C@@H](Cc1ccc(F)c(F)c1)C(=O)N[C@H]1N=C(c2ccc3c(=O)[nH]ccc3c2)c2ccccc2N(C)C1=O | 9.70 | – |
| C[C@@H](Cc1ccc(F)c(F)c1)C(=O)N[C@H]1N=C(c2ccc3c(c2)OCO3)c2ccccc2N(CC(=O)N(C)C)C1=O | 8.26 | – |
| C[C@@H](Cc1ccc(F)c(F)c1)C(=O)N[C@H]1N=C(c2ccc3c(c2)OCO3)c2ccccc2N(CC(N)=O)C1=O | 7.88 | half-life [4]: 1.4 h; bioavailability [5]: 22%; Cmax [6]: 900 nM; AUC at 4 h [2]: 2.9 µM·h |
| CC(=O)CCN1C(=O)[C@@H](NC(=O)[C@@H](C)Cc2ccc(F)c(F)c2)N=C(c2ccc3c(c2)OCO3)c2ccccc21 | 8.43 | – |
| COC(=O)CN1C(=O)[C@@H](NC(=O)[C@@H](C)Cc2ccc(F)c(F)c2)N=C(c2ccc3c(c2)OCO3)c2ccccc21 | 7.90 | – |
| C[C@@H](Cc1ccc(F)c(F)c1)C(=O)N[C@H]1N=C(c2ccc3c(c2)OCO3)c2ccccc2NC1=O | 8.74 | – |
| C[C@@H](Cc1ccc(F)c(F)c1)C(=O)N[C@H]1N=C(c2ccc3c(c2)OCO3)c2ccccc2N(CCO)C1=O | 9.05 | – |
| C[C@@H](Cc1ccc(F)c(F)c1)C(=O)N[C@H]1N=C(c2ccc3c(c2)CCC(=O)N3)c2ccccc2N(C)C1=O | 7.00 | – |
| CNC(=O)CN1C(=O)[C@@H](NC(=O)[C@@H](C)Cc2ccc(F)c(F)c2)N=C(c2ccc3c(c2)OCO3)c2ccccc21 | 8.74 | – |
| C[C@@H](Cc1ccc(F)c(F)c1)C(=O)N[C@H]1N=C(c2ccc3c(c2)OCCO3)c2ccccc2N(C)C1=O | 8.33 | – |
| C[C@@H](Cc1ccc(F)c(F)c1)C(=O)N[C@H]1N=C(c2ccc3c(c2)CCC3=O)c2ccccc2N(C)C1=O | 8.44 | – |
